Experimental data: patent US12478643B2, “Compositions and methods for the prevention or treatment of rheumatoid arthritis” (Rhode Island Hospital, priority 2021, dated 2025)

Key:
[1] = system: DBA/1 mice; experiment: 3AC i.p. daily for 7 days in DBA/1 mice: Western blot and flow cytometry; format: in vivo, mouse
Source text: Mice. All animals were maintained in pathogen-free conditions and all animal procedures followed protocols approved by the Institutional Animal Care and Use Committee (IACUC) of Rhode Island Hospital. The SHIP-1 knockout (KO) mice (Inpp5d<tm1Dmt>/J, Stock #003534) on a mixed genetic background (129/C57BL/6) were purchased from the Jackson Laboratory, Bar Harbor, ME, and backcrossed with C57BL/6 mice (Stock #000664, the Jackson Laboratory) for 5 generations. Heterozygous (SHIP-1^+/−) mice were intercrossed to obtain homozygous progeny (SHIP-1^−/−). Wild-type (WT) littermates (SHIP-1^+/+) of same age as SHIP1 KO mice were used as controls. DBA/1J mice (Stock #000670) were also purchased from the Jackson Laboratory.
Chemicals and reagents. Specific SHIP-1 inhibitor 3AC was purchased from Echelon Biosciences (Salt Lake, UT) and suspended in 0.3% Klucel (Sigma-Aldrich, St. Louis, MO) solution. The 3AC suspension was stirred by sonication and sterile filtered before injection. The 0.3% Klucel solution was used as a vehicle control.
Immunoblotting. Splenocytes were isolated from C57BL/6 WT and SHIP1 KO mice, and DBA/1 mice with or without 3AC treatment. The cells were then lysed with RIPA buffer containing Halt™ Protease and Phosphatase Inhibitor Cocktail (Thermo Scientific, Rockford, IL). Total lysates (30 μg/sample) were loaded on an SDS-PAGE gel and transferred onto an Immuno-Blot PVDF membrane (Bio-Rad, Hercules, CA). The membranes were first blocked and then probed with antibodies in TBS (20 mM Tris and 150 mM NaCl) containing 0.1% Tween-20 and 5% skim milk. Antibodies against SHIP-1 (P1C1) (sc-8425) and β-Actin (2A3) were purchased from Santa Cruz Biotechnology (Dallas, TX). Blots were developed by using a goat anti-mouse IgG antibody conjugated IRDye 800CW and imaged with an Odyssey imager (LI-COR, Lincoln, NE).
Flow cytometry analysis. Peripheral blood (PB) samples were collected from the retro-orbital sinus of mice on the indicated days. Bone marrow (BM) of femurs and tibiae and spleens were isolated from sacrificed mice. Following treatment with red blood cell lysing buffer (Sigma-Aldrich) and filtration through a nylon mesh, peripheral blood mononuclear cells (PBMCs), splenocytes, and whole BM cells were isolated and suspended in phosphate-buffered saline (PBS) containing 2% FBS. These cells were labeled with fluorophore-conjugated antibodies and subjected to flow cytometry. All antibodies used in flow cytometry were purchased from BioLegend (San Diego, CA): Alexa Fluor 488 anti-mouse CD11b, APC anti-mouse Gr-1, PE anti-mouse CD3e, APC/Cy7 anti-mouse B220, Alexa Flour 488 anti-mouse CD4, and APC anti-mouse CD25. 4′,6-Diamidino-2-Phenylindole (DAPI) was used to exclude DAPI+ dead cells during flow cytometry analysis. Data were acquired using LSR II flow cytometer (BD Biosciences) and analyzed with FlowJo software (FlowJo, Ashland, OR).
Statistical analysis. Data are shown as the mean values±standard error of the mean (SEM). The significance of difference was calculated with unpaired two-tailed Student's t-test or one-way ANOVA when comparing more than 2 groups by using GraphPad Prism (GraphPad Software, Inc., La Jolla, CA). P values less than 0.05 were considered to be statistically significant.

[2] = system: CIA in C57BL/6 WT and SHIP1 KO mice; experiment: CIA in C57BL/6 WT and SHIP1 KO mice; format: in vivo, mouse
[3] = system: collagen-induced arthritis (CIA) in DBA/1 mice; experiment: Collagen-induced arthritis (CIA) intervention model, 3AC after second immunization; format: in vivo, mouse
[4] = system: mice; details: as seen in SHIP-1 KO mice; cited from earlier work
[5] = system: wild-type (WT) C57BL/6 mice; details: cited from earlier work
[6] = system: SHIP-1; details: temporal inhibition of SHIP-1; cited from earlier work
[7] = system: xenograft model of multiple myeloma; details: cited from earlier work
[8] = system: collagen-induced arthritis (CIA) in DBA/1 mice; experiment: Collagen-induced arthritis (CIA) prevention model, 3AC pre-treatment; format: in vivo, mouse
[9] = target: T1, SHIP1 (Homo sapiens, UniProt Q92835); details: read-out: IC50 SHIP-1; cited from earlier work
T1 sequence (Q92835 1-1189): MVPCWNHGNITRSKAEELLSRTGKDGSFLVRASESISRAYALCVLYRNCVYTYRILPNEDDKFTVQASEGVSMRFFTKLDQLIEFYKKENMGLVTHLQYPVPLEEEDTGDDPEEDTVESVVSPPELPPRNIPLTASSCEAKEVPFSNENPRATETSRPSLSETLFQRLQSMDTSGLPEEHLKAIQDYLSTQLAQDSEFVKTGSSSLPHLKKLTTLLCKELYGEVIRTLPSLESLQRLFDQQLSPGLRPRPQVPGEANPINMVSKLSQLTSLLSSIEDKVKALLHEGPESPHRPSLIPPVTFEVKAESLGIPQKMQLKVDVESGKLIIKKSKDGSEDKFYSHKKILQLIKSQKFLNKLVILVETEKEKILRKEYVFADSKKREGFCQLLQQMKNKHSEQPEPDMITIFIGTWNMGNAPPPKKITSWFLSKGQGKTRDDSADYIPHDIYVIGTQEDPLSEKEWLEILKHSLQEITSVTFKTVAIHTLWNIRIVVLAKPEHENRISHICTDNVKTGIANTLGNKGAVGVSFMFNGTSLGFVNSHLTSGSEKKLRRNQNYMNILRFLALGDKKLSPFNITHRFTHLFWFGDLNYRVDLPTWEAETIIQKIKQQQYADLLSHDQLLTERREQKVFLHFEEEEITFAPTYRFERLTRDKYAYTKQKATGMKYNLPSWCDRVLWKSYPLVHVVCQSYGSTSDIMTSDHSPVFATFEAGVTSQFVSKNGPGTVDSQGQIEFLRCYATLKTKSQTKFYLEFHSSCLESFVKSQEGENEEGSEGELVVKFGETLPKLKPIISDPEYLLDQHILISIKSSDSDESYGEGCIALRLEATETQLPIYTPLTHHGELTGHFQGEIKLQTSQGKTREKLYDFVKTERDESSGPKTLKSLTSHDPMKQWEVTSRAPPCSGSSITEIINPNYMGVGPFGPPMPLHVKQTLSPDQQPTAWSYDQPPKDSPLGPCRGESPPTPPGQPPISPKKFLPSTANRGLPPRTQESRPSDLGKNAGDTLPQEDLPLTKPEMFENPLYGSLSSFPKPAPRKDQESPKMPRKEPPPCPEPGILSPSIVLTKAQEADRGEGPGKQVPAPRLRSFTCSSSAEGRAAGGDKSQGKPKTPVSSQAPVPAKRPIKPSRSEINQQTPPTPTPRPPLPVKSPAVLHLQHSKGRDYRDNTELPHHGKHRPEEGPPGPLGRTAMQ

[10] = system: hematopoietic cancer cells; details: in vitro; cited from earlier work
[11] = i.p. daily for 7 days, DBA/1 mice
[12] = 3AC daily for 7 days starting on day 27
[13] = 3AC daily for 7 days prior to CIA induction, vs vehicle

CC(C)CCC[C@@H](C)[C@H]1CC[C@H]2[C@@H]3CC[C@H]4C[C@H](N)CC[C@]4(C)[C@H]3CC[C@]12C [Compound 3AC, 3α-Aminocholestane]
CD3+ T cells in PB [1, 11]: significant reduction
CD11b+Gr-1+ MDSCs in BM [1, 11]: increase
CD11b+Gr-1+ MDSCs in peripheral blood (PB) [1, 11]: increase
CD11b+Gr-1+ MDSCs in spleen (SP) [1, 11]: increase
SHIP-1 protein depletion in splenocytes (Western blot) [1, 11]: comparable to that in SHIP1 KO mice
Tregs in SP ([1]; vs vehicle control mice): significantly elevated level
frequency of CD4+CD25+ Tregs in PB ([1]; vs vehicle treated control mice): remained unchanged
incidence and severity of CIA in SHIP1 KO mice ([2]; SHIP1 KO mice treated with 3AC (data not shown)): did not improve
CIA development in C57BL/6 WT mice ([2]; WT mice with 3AC pre-treatment): did not develop CIA
CIA incidence [3, 12]: significantly reduced
CIA severity (clinical score) [3, 12]: significantly reduced
number of total T cell in peripheral blood ([3]; day 34): Significantly and transiently decreasing
number of Tregs in peripheral blood ([3]; mouse, in vivo): unchanged
number of Tregs in the spleen ([3]; onset and endpoint of the experiment, vs control): Comparable number
number of MDSCs in peripheral blood ([3]; vs vehicle-treated mice, day 34): Significantly but transiently increasing
pulmonary myeloid infiltration [4]: did not cause
myeloid immunoregulatory cell compartment ([5]; WT C57BL/6 mice): significantly expand
ability of the immune system to prime allogeneic T cell responses ([5]; mouse models): impairs
SHIP-1 protein stability in cells [6]: reduces protein stability and induces protein degradation
inflammation of peripheral tissues [7]: without association with severe inflammation of peripheral tissues
tumor cell growth [7]: reduces tumor cell growth
CIA onset [8, 13]: significant delay
severity of CIA (clinical score) [8, 13]: significant reduction
misalignment, bone erosion and destruction of joint cartilage (radiographic assessment) ([8]; X-ray at day 63): nearly absent
time at which swelling and redness of limbs started to appear ([8]; after first immunization, 3AC pre-treated DBA/1 mice): 30 to 40 days
swollen and reddish front paws (photographic assessment) ([8]; day 42): much less so
Tregs in the spleen ([8]; following 3AC injection): higher number
CD3+ T cells in peripheral blood ([8]; till day 21, transient): decreased
MDSCs in peripheral blood ([8]; till day 21, transient): significantly increased
bone erosion (Toluidine Blue) ([8]; wrist joint of front paws): reduced bone erosion
cartilage damage (Safranin O) ([8]; wrist joint of front paws): reduced cartilage damage
inflammatory cell infiltration in the arthritic joint (H&E) ([8]; wrist joint of front paws): reduced inflammatory cell infiltration
IC50 [9]: ~2500 nM
apoptosis of hematopoietic cancer cells [10]: increases apoptosis
